Like-named read-outs stand apart in the source and are kept apart here.
Legend:
[1] = test system: HXB2 virus; assay: microbe, parasite or virus in culture; type: cell-based, HIV
Procedure, shortened: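 Single-cycle infectivity assay in HeLa P4-2 cells measuring inhibition of acute HIV infection, using HXB2 virus.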

[2] = test system: HeLa P4-2 cell line; conditions: human
Description: The HeLa P4-2 cell line used in the single cycle HIV infectivity Assay B of Example 270 was also used to determine compound cytotoxicity in the absence of viral infection.

[3] = molecular target: HIV-1 reverse transcriptase (RNase H) (Human immunodeficiency virus type 1 group M subtype B, UniProt P04585); assay: ASH assay: RNase H mediated RNA cleavage (ECL format, BioVeris M384); type: biochemical
Description: Potency of a substance as an RNase H inhibitors can be determined by measuring its ability prevent RNase H catalyzed cleavage of the RNA strand in a RNA/DNA hybrid duplex substrate. RNase H activity is measured using a substrate generated by annealing the oligoribo-nucleotide 5′-rCrCrUrCrUrCrArArArArArCrArGrGrArGrCrArGrArArArGrArCrArArG (SEQ ID NO:1) to the oligodeoxyribonucleotide 5′-Biotin-[…] (SEQ ID NO:2). […] (SEQ ID NO:3). The resulting double-stranded duplex DNA product is quantitated in an ALPHA screen format using [streptavidin- and anti-fluorescein-coated beads (Packard Bioscience) following the manufacturer's guidelines and reading on a Fusion AlphaScreen instrument. Alternatively, the released 5′-Biotinylated DNA is annealed to a complementary oligodeoxyribonucleotide: 5′-ruthenium-[…] (SEQ ID NO:3). The resulting double-stranded duplex DNA product is quantitated in an ECL screen format using Dynabeads M280 coated with streptavidin (BioVeris Corporation) following the manufacturer's guidelines and reading on a BioVeris M384 Analyzer.

[4] = molecular target: HIV integrase (Human immunodeficiency virus type 1 group M subtype B, UniProt P04585); assay: integrase strand transfer assay (STA); type: biochemical
[5] = Human immunodeficiency virus 1, HXB2, HeLaP4-2, read-out: SCIA-B (IC50, μM)
[6] = Human immunodeficiency virus 1, HXB2, HeLaP4-2, read-out: antiviral IC50 (SCIA-B)
[7] = IC50 in the STA assay, integrase strand transfer
[8] = STA (IC50, μM), integrase strand-transfer assay, Example 269
[9] = RNase H mediated RNA cleavage assay, Example 269, read-out: ASH (IC50)
[10] = integrase strand transfer, read-out: IC50 in the STA assay
[11] = integrase strand-transfer assay, Example 269, read-out: STA (IC50)

With `O=c1cc(NC2CCN(c3ccccc3)CC2)c2cccnc2n1O` [Example 154, 1-hydroxy-4-[(1-phenyl-4-piperidinyl)amino]-1,8-naphthyridin-2(1H-one)] the IC50 [1, 5] was 0.27 µM, the IC50 [1, 6] was < 100 µM and the “Cytotoxicity (LD50, μM)” value [2] was 7.2 µM. The IC50 [3] was 200 nM, the IC50 [4, 7] was < 50 µM and the IC50 [4, 8] was 1.7 µM.

For `CN(C)CCC(Nc1cc(=O)n(O)c2ncccc12)c1ccccc1` (stereo not drawn) [Example 158, 4-{[3-(dimethylamino)-1-phenylpropyl]amino}-10hydroxy-1,8-naphthyridin-2(1H-one)], the IC50 [1, 5] was 0.24 µM, the IC50 [1, 6] was < 100 µM and the “Cytotoxicity (LD50, μM)” value [2] was 16 µM. The IC50 [3] was 360 nM, the IC50 [4, 7] was < 50 µM and the IC50 [4, 8] was 6.5 µM.

`NCc1ccccc1CNc1cc(=O)n(O)c2ncccc12` [Example 163, 4-{[2-(aminomethyl)benzyl]amino}-1-hydroxy-1,8-naphthyridin-2 (1H-one)] was tested, and the IC50 [1, 5] was 0.14 µM, the IC50 [1, 6] was < 100 µM and the “Cytotoxicity (LD50, μM)” value [2] was 50 µM. For the same compound, the IC50 [3] was 180 nM, the IC50 [4, 7] was > 50 µM and the IC50 [4, 8] was > 50 µM.

With `NCc1cccc(-c2cc(=O)n(O)c3ncccc23)c1` [Example 172, 4-[3-(aminomethyl)phenyl]-1-hydroxy-1,8-naphthyridin-2(1H)-one] the IC50 [1, 5] was 0.26 µM, the IC50 [1, 6] was < 100 µM and the “Cytotoxicity (LD50, μM)” value [2] was 5.5 µM. For the same compound, the IC50 [3] was 140 nM, the IC50 [4, 7] was < 50 µM and the IC50 [4, 8] was 0.22 µM.

`CCOC(=O)c1c(O)c2c(-c3cccc(CN(C)C)c3)ccnc2n(O)c1=O` [Example 230, ethyl 5-{3-[(dimethylamino)methyl]phenyl}-1,4-dihydroxy-2-oxo-1,2-dihydro-1,8-naphthyridine-3-carboxylate] was tested, and the IC50 [1, 5] was 0.77 µM, the IC50 [1, 6] was < 100 µM and the “Cytotoxicity (LD50, μM)” value [2] was >100 µM. For the same compound, the IC50 [3, 9] was 110 nM, the IC50 [4, 10] was < 50 µM and the IC50 [4, 11] was 2.3 µM.

For `NCc1cccc(-c2cccc(Cc3cc(=O)n(O)c4ncccc34)c2)c1` [Example 231, 4-{[3′-(aminomethyl)biphenyl-3-yl]methyl}-1-hydroxy-1,8-naphthyridin-2(1 H)-one], the IC50 [1, 5] was 0.29 µM, the IC50 [1, 6] was < 100 µM and the “Cytotoxicity (LD50, μM)” value [2] was 10 µM. For the same compound, the IC50 [3, 9] was 340 nM, the IC50 [4, 10] was < 50 µM and the IC50 [4, 11] was 1.1 µM.

In the case of `NCc1ccc(-c2ccc(Cc3cc(=O)n(O)c4ncccc34)cc2)cc1` [Example 235, 4-{[4′-(aminomethyl)biphenyl-4-yl]methyl}-1-hydroxy-1,8-naphthyridin-2(1H)-one], the IC50 [1, 5] is reported as 0.13 µM, the IC50 [1, 6] is reported as < 100 µM and the “Cytotoxicity (LD50, μM)” value [2] is reported as 7.8 µM. The IC50 [3] was 46 nM, the IC50 [4, 7] was > 50 µM and the IC50 [4, 8] was > 50 µM.

`O=c1cc(Cc2ccc(CCc3ccc(F)cc3F)cc2)c2cccnc2n1O` [Example 236, 4-{4-[2-(2,4-difluorophenyl)ethyl]benzyl}-1-hydroxy-1,8-naphthyridin-2(1H)-one] was tested, and the IC50 [1, 5] was 0.26 µM, the IC50 [1, 6] was < 100 µM and the “Cytotoxicity (LD50, μM)” value [2] was 21 µM. The IC50 [3] was 120 nM, the IC50 [4, 7] was < 50 µM and the IC50 [4, 8] was 0.05 µM.

With `CCOC(=O)c1ccnc2c1c(-c1ccc(-c3ccc(CN)cc3)cc1)cc(=O)n2O` [Example 241, Ethyl 5-[4′-(aminomethyl)biphenyl-4-yl]-8-hydroxy-7-oxo-7,8-dihydro-1,8-naphthyridine-4-carboxylate] the IC50 [1, 5] was 0.32 µM, the IC50 [1, 6] was < 100 µM and the “Cytotoxicity (LD50, μM)” value [2] was 3.8 µM. The IC50 [3, 9] was 290 nM, the IC50 [4, 10] was < 50 µM and the IC50 [4, 11] was 6.2 µM.

In the case of `NCc1ccc(-c2ccc(-c3c(-c4ccccc4)c(=O)n(O)c4ncc(F)cc34)cc2)cc1` [Example 242, 4-[4′-(aminomethyl)biphenyl-4-yl]-6-fluoro-1-hydroxy-3-phenyl-1,8-naphthyridin-2-(1H)-one], the IC50 [1, 5] is reported as 0.25 µM, the IC50 [1, 6] is reported as < 100 µM and the “Cytotoxicity (LD50, μM)” value [2] is reported as 310 µM. For the same compound, the IC50 [3] was 180 nM, the IC50 [4, 7] was < 50 µM and the IC50 [4, 8] was 7.4 µM.

In the case of `O=c1cc(N2CCc3ccc(-c4cccnc4)cc3C2)c2cccnc2n1O` [Example 255, 1-hydroxy-4-(7-pyridin-3-yl-3,4-dihydroisoquino1in-2(1H)-yl)-1,8-naphthyridin-2(1H)-one], the IC50 [1, 5] is reported as 0.17 µM, the IC50 [1, 6] is reported as < 100 µM and the “Cytotoxicity (LD50, μM)” value [2] is reported as 5.1 µM. The IC50 [3] was 120 nM, the IC50 [4, 7] was < 50 µM and the IC50 [4, 8] was 1.8 µM.

`NCc1ccc(-c2ccc3c(c2)CN(c2cc(=O)n(O)c4ncccc24)C3)cc1` [Example 257, 4-{5-[4-(aminomethyl)phenyl]-1,3-dihydro-2H-isoindol-2-yl}-1-hydroxy-1,8-naphthyridin-2(1H)-one] was tested, and the IC50 [1, 5] was 0.35 µM, the IC50 [1, 6] was < 100 µM and the “Cytotoxicity (LD50, μM)” value [2] was 49 µM. For the same compound, the IC50 [3] was 33 nM, the IC50 [4, 7] was < 50 µM and the IC50 [4, 8] was 46 µM.

Source: patent US20100056516A1 (priority 2006, published 2010)
